Measurements from patent US20170304336A1, “COMBINATION” (priority 2014, published 2017).

Experiments:
Format in all cases: in vivo, male rats of Wistar line
[1] = Mass coefficients of organs (pancreas, liver, kidneys) of rats; conditions: M ± m; for weight coefficient, Kidneys / weight coefficient, Liver: in %
Protocol: To calculate mass coefficients the pancreas, liver and kidneys of the animals were extracted. The organs were weighed and the mass coefficients were calculated by the following formula:
Mass coefficient=(organ weight/animal body weight)×100%

[2] = system: experimental rat hypercholesterolemia model; assay: Lipid spectrum of blood in experimental rat hypercholesterolemia model
Protocol: The animals used were male rats of Wistar line. […] The proposed model using rats as the experimental animals is a reproducible standard model for evaluation of hypocholesterolemic effect.
(§1) Evaluation of hypocholesterolemic efficacy and safety of pharmaceutical combination was performed in vivo in experimental rat hypercholesterolemia model.
(§2) For 90 days the studied animals received hypercholesterol diet for pathology induction. The diet included Cholesterol+Cholic acid+Overheated fats (deep fat).
For 90 days the animals received the said ration ad libitum (30 g feed per animal). Development of hypercholesterolemia in animals was evaluated based on changes in lipid spectrum parameters on Day 30 of the study.
(§3) Drugs were introduced intragastrically with an esophageal bougie daily on Day 31-90 of the study at the same time of day.
Biochemical parameters and activity of blood serum enzymes (total cholesterol (CHS), LDL-CHS, HDL-CHS, triglycerides.
1.0-1.84 ml blood samples for the study of biochemical parameters were taken from tail vein of rats. Blood samples were taken from the animals after 14-15-hour's fasting at same time of day (9.00-11.00). For biochemical parameters tests a Biochemical Analyzer A-25 (Biosystems, Spain) was used. […]

[3] = system: experimental rat hypercholesterolemia model; assay: Biochemical blood analysis (drug toxicity parameters) in rat hypercholesterolemia model
Protocol: as §1, §2, §3
Biochemical parameters and activity of serum enzymes (aspartate- and alanine aminotransferase, creatine phosphokinase, urea, serum amylase, total bilirubin, direct bilirubin, indirect bilirubin, serum glucose, cations K^+, Na^+).
1.0-1.84 ml blood samples for the study of biochemical parameters were taken from tail vein of rats. Blood samples were taken from the animals after 14-15-hour's fasting at same time of day (9.00-11.00). For biochemical parameters tests a Biochemical Analyzer A-25 (Biosystems, Spain) was used.
Vol. 4. pp. 1794-1798; Pearlman F C and Lee R T Y. Clin Chem 1974, 20, 447-453; Zoppi F et al, Peracino A., Fenili D., Marcovina S. and Ramella C. Giorn It Chim Cl. […] C. et al Clin Chem. 1974. Vol. 20. pp. 470-475; and in Meiattini F., et al, Clin Chem. 1978. Vol. 24. pp. 2161-2165 (total cholesterol); Warnick G R et al. Clin Chem 2001, 47, 1579-96 (HDL/LDL); Bucolo G and David H. Clin Chem. 1973.-Vol. 19. pp. 476-482; and in Fossati P. and, Prencipe L., Clin Chem. 1982. Vol. 28. pp. 2077-2080 (triglycerides); Trinder P. Ann Clin Biochem. 1969. Vol. 6. pp. 24-27).

[4] = LV + SGA 20 + 108 mg, LV 20 mg, SGA 108 mg
[5] = Day 30 of treatment (Day 60 of study), dose 20 mg
[6] = Day 30 of treatment (Day 60 of study), dose 40 mg
[7] = Day 60 of treatment (Day 90 of study), dose 20 mg
[8] = Day 60 of treatment (Day 90 of study), dose 40 mg
[9] = blood, Day 60 of the treatment (Day 90 of the study), LV + SGA 20 + 108 mg, LV 20 mg, SGA 108 mg
[10] = PV + GtA 40 + 108 mg, PV 40 mg, GtA 108 mg
[11] = Day 30 of treatment (Day 60 of study), dose 108 mg
[12] = Day 60 of treatment (Day 90 of study), dose 108 mg
[13] = blood, Day 60 of the treatment (Day 90 of the study), PV + GtA 40 + 108 mg, PV 20 mg, GtA 108 mg
[14] = Day 30 of treatment, 20 mg as monotherapy

With `CC[C@H](C)C(=O)O[C@H]1C[C@@H](C)C=C2C=C[C@H](C)[C@H](CC[C@@H]3C[C@@H](O)CC(=O)O3)[C@H]21` [LV, (1S,3R,7S,8S,8aR)-8-{2-[(2R,4R)-4-hydroxy-6-oxooxan-2-yl]ethyl}-3,7-dimethyl-1,2,3,7,8,8a-hexahydronaphthalen-1-yl (2S)-2-methylbutanoate] the “weight coefficient, Pancreas” value ([1]; LV 40 mg) was 0.48 ± 0.03^1, the “weight coefficient, Kidneys” value ([1]; LV 40 mg) was 0.77 ± 0.01 and the “weight coefficient, Liver” value ([1]; LV 40 mg) was 4.46 ± 0.15. For the same molecule, the “weight coefficient, Pancreas” value [1, 4] was 0.35 ± 0.04, the “weight coefficient, Kidneys” value [1, 4] was 0.74 ± 0.02 and the “weight coefficient, Liver” value [1, 4] was 4.45 ± 0.11. For the same molecule, the “HDL CHS” value [2, 5] was 0.64 ± 0.05 mmol/L, the “LDL CHS” value [2, 5] was 4.25 ± 0.44 mmol/L and the TG [2, 5] was 1.31 ± 0.12 mmol/L. For the same molecule, the “Total CHS” value [2, 5] was 5.6 ± 0.1 mmol/L, the “HDL CHS” value [2, 6] was 0.89 ± 0.01 mmol/L and the “LDL CHS” value [2, 6] was 3.82 ± 0.20 mmol/L. The TG [2, 6] was 1.22 ± 0.03 mmol/L, the “Total CHS” value [2, 6] was 4.5 ± 0.2 mmol/L and the “HDL CHS” value [2, 7] was 0.74 ± 0.04 mmol/L. The “LDL CHS” value [2, 7] was 3.92 ± 0.43 mmol/L, the TG [2, 7] was 1.21 ± 0.11 mmol/L and the “Total CHS” value [2, 7] was 4.8 ± 0.2 mmol/L. The “HDL CHS” value [2, 8] was 0.90 ± 0.01 mmol/L, the “LDL CHS” value [2, 8] was 3.43 ± 0.23 mmol/L and the TG [2, 8] was 1.20 ± 0.03 mmol/L. The “Total CHS” value [2, 8] was 4.1 ± 0.3 mmol/L, the ALT [3, 5] was 160 U/l and the AST [3, 5] was 183 U/l. For the same molecule, the Amylase [3, 5] was 646 U/l, the Bilirubin direct [3, 5] was 2.1 mg/dL and the Bilirubin indirect [3, 5] was 2.1 mg/dL. It also gave a Bilirubin total [3, 5] of 4.6 mg/dL, a CPK [3, 5] of 510 U/l and a Glucose [3, 5] of 139 mg/dL. For the same molecule, the Sodium [3, 5] was 128 mmol, the Urea [3, 5] was 7.3 mmol/L and the ALT [3, 9] was 141 U/l. For the same molecule, the AST [3, 9] was 190 U/l, the Amylase [3, 9] was 597 U/l and the Bilirubin direct [3, 9] was 4.4 mg/dL. For the same molecule, the Bilirubin indirect [3, 9] was 2.3 mg/dL, the Bilirubin total [3, 9] was 4.4 mg/dL and the CPK [3, 9] was 597 U/l. It also gave a Glucose [3, 9] of 148 mg/dL, a Sodium [3, 9] of 128 mmol and a Urea [3, 9] of 6.0 mmol/L.
With `CC1(C)[C@@H](O)CC[C@]2(C)[C@H]3C(=O)C=C4[C@@H]5C[C@@](C)(C(=O)O)CC[C@]5(C)CC[C@@]4(C)[C@]3(C)CC[C@@H]12` [GtA, (2S,4aS,6aS,6bR,8aR,10S,12aS,12bR,14bR)-10-hydroxy-2,4a,6a,6b,9,9,12a-heptamethyl-13-oxo-1,2,3,4,4a,5,6,6a,6b,7,8,8a,9,10,11,12,12a,12b,13,14b-icosahydropicene-2-carboxylic acid] the “weight coefficient, Pancreas” value [1, 10] was 0.21 ± 0.01^2, the “weight coefficient, Kidneys” value [1, 10] was 0.80 ± 0.02 and the “weight coefficient, Liver” value [1, 10] was 4.43 ± 0.10. The “HDL CHS” value [2, 11] was 0.51 ± 0.04 mmol/L, the “LDL CHS” value [2, 11] was 4.40 ± 0.4 mmol/L and the TG [2, 11] was 1.6 ± 0.11 mmol/L. For the same molecule, the “Total CHS” value [2, 11] was 4.9 ± 0.5 mmol/L, the “HDL CHS” value [2, 12] was 0.61 ± 0.03 mmol/L and the “LDL CHS” value [2, 12] was 4.24 ± 0.4 mmol/L. For the same molecule, the TG [2, 12] was 1.5 ± 0.11 mmol/L, the “Total CHS” value [2, 12] was 4.5 ± 0.5 mmol/L and the ALT [3, 11] was 97 U/l. The AST [3, 11] was 130 U/l, the Amylase [3, 11] was 622 U/l and the Bilirubin direct [3, 11] was 1.1 mg/dL. For the same molecule, the Bilirubin indirect [3, 11] was 1.7 mg/dL, the Bilirubin total [3, 11] was 3.2 mg/dL and the CPK [3, 11] was 390 U/l. For the same molecule, the Glucose [3, 11] was 119 mg/dL, the Potassium [3, 11] was 2.8 mM and the Urea [3, 11] was 6.5 mmol/L. The ALT [3, 13] was 101 U/l, the AST [3, 13] was 120 U/l and the Amylase [3, 13] was 599 U/l. For the same molecule, the Bilirubin direct [3, 13] was 1.2 mg/dL, the Bilirubin indirect [3, 13] was 1.8 mg/dL and the Bilirubin total [3, 13] was 2.7 mg/dL. The CPK [3, 13] was 300 U/l, the Glucose [3, 13] was 112 mg/dL and the Potassium [3, 13] was 3.1 mM. It also gave a Urea [3, 13] of 5.5 mmol/L.
With `CC1(C)[C@@H](O[C@H]2O[C@H](C(=O)O)[C@@H](O)[C@H](O)[C@H]2O[C@@H]2O[C@H](C(=O)O)[C@@H](O)[C@H](O)[C@H]2O)CC[C@]2(C)[C@H]3C(=O)C=C4[C@@H]5C[C@@](C)(C(=O)O)CC[C@]5(C)CC[C@@]4(C)[C@]3(C)CC[C@@H]12.[Na+]` [SGA, sodium glycyrrhizinate] the “weight coefficient, Pancreas” value [1, 4] was 0.22 ± 0.01^2, the “weight coefficient, Kidneys” value [1, 4] was 0.81 ± 0.02 and the “weight coefficient, Liver” value [1, 4] was 4.42 ± 0.10. The “HDL CHS” value [2, 11] was 0.53 ± 0.04 mmol/L, the “LDL CHS” value [2, 11] was 4.30 ± 0.41 mmol/L and the TG [2, 11] was 1.3 ± 0.11 mmol/L. For the same molecule, the “Total CHS” value [2, 11] was 5.0 ± 0.4 mmol/L, the “HDL CHS” value [2, 12] was 0.63 ± 0.03 mmol/L and the “LDL CHS” value [2, 12] was 4.00 ± 0.3 mmol/L. The TG [2, 12] was 1.6 ± 0.11 mmol/L, the “Total CHS” value [2, 12] was 5.0 ± 0.4 mmol/L and the ALT [3, 11] was 91 U/l. The AST [3, 11] was 125 U/l, the Amylase [3, 11] was 600 U/l and the Bilirubin direct [3, 11] was 3.0 mg/dL. For the same molecule, the Bilirubin indirect [3, 11] was 1.2 mg/dL, the Bilirubin total [3, 11] was 4.3 mg/dL and the CPK [3, 11] was 308 U/l. The Glucose [3, 11] was 110 mg/dL, the Potassium [3, 11] was 2.5 mM and the Sodium [3, 11] was 132 mmol. It also gave a Urea [3, 11] of 6.8 mmol/L, an ALT [3, 9] of 102 U/l and an AST [3, 9] of 123 U/l. The Amylase [3, 9] was 603 U/l, the Bilirubin direct [3, 9] was 2.0 mg/dL and the Bilirubin indirect [3, 9] was 1.9 mg/dL. The Bilirubin total [3, 9] was 2.9 mg/dL, the CPK [3, 9] was 331 U/l and the Glucose [3, 9] was 120 mg/dL. It also gave a Potassium [3, 9] of 3.2 mM, a Sodium [3, 9] of 121 mmol and a Urea [3, 9] of 5.2 mmol/L.
In the case of `CCC(C)(C)C(=O)O[C@H]1C[C@@H](C)C=C2C=C[C@H](C)[C@H](CC[C@@H]3C[C@@H](O)CC(=O)O3)[C@H]21` [SV, (1S,3R,7S,8S,8aR)-8-{2-[(2R,4R)-4-hydroxy-6-oxotetrahydro-2H-pyran-2-yl]ethyl}-3,7-dimethyl-1,2,3,7,8,8a-hexahydronaphthalen-1-yl 2,2-dimethylbutanoate], the “HDL CHS” value [2, 5] was 0.82 ± 0.06 mmol/L, the “LDL CHS” value [2, 5] was 3.75 ± 0.25 mmol/L and the TG [2, 5] was 1.41 ± 0.11 mmol/L. The “Total CHS” value [2, 5] was 5.2 ± 0.2 mmol/L, the “HDL CHS” value [2, 6] was 0.58 ± 0.02 mmol/L and the “LDL CHS” value [2, 6] was 3.54 ± 0.20 mmol/L. The TG [2, 6] was 1.27 ± 0.04 mmol/L, the “Total CHS” value [2, 6] was 4.2 ± 0.2 mmol/L and the “LDL decrease as compared to the control group” value [2, 14] was 35%. For the same molecule, the “TG decrease as compared to the control group” value [2, 14] was 18%, the “decrease of the concentration of CHS as compared to the control group” value [2, 14] was 26% and the “increase in concentration of HDL as compared to the control group” value [2, 14] was 86%. For the same molecule, the “HDL CHS” value [2, 7] was 0.77 ± 0.05 mmol/L, the “LDL CHS” value [2, 7] was 3.50 ± 0.05 mmol/L and the TG [2, 7] was 1.43 ± 0.11 mmol/L. For the same molecule, the “Total CHS” value [2, 7] was 4.9 ± 0.3 mmol/L, the “HDL CHS” value [2, 8] was 0.91 ± 0.02 mmol/L and the “LDL CHS” value [2, 8] was 3.20 ± 0.1 mmol/L. For the same molecule, the TG [2, 8] was 1.09 ± 0.05 mmol/L and the “Total CHS” value [2, 8] was 3.8 ± 0.1 mmol/L.
